# According to patent publication US20100016400A1, “AZABICYCLIC MUSCARINIC RECEPTOR ANTAGONISTS” (priority 2004, published 2010):
row,melting point [°C],Structure (SMILES)
1,71.3 to 72.7,CN(C)C1C2CN(C(=O)C(O)(c3ccccc3)C3CCCCC3)CC21 (stereo not drawn)
2,140 to 142,CNCC1C2CN(C(=O)C(O)(c3ccccc3)C3CCCCC3)CC12 (stereo not drawn)
3,179.7 to 182,CNC1C2CN(C(=O)C(O)(c3ccccc3)C(F)(F)F)CC21 (stereo not drawn)
4,110 to 113,CNCC1C2CN(C(=O)C(O)(c3ccccc3)C(F)(F)F)CC12 (stereo not drawn)
5,178 to 179.4,CNC1C2CN(C(=O)C(O)(c3ccc(C)cc3)C(F)(F)F)CC21 (stereo not drawn)
6,191 to 194,CNCC1C2CN(C(=O)C(O)(c3ccc(C)cc3)C(F)(F)F)CC12 (stereo not drawn)
